According to patent publication US12415819B2, “Cu- and Ni-catalyzed decarboxylative borylation reactions” (The Scripps Research Institute, priority 2017, dated 2025):
Values after ≈ are worked out from the molar mass of the structure shown. Values joined by “and” are separate entries in the source; they are usually repeats but may differ in a detail not shown here. Identical values can stand only once.

Assays:
[1] = biological target: elastase in CF patient sputum (Homo sapiens (Human), UniProt P08246); assay: Elastase inhibition assay in CF patient sputum; type: biochemical
elastase in CF patient sputum, sequence (P08246 30-267): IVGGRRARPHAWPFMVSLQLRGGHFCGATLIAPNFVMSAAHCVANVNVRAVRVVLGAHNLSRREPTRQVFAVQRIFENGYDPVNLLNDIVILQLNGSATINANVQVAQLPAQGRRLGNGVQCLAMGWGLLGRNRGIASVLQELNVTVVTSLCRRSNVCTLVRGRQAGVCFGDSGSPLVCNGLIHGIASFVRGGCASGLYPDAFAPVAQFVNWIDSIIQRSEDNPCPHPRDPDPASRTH
Description: (§1) Serially diluted compounds in DMSO were dispensed into a 384-well black opaque plate by Echo dispenser. 0.1 μg/mL human neutrophil elastase (EPC, Catalog# SE563, Owensville, Ms.) or human sputum diluted with assay buffer (100 mM HEPES, 500 mM NaCl, 0.02% Tween 20) was added into the 384-well plate, and was incubated with different compounds at different concentrations for 30 minutes at room temperature. The final concentration of DMSO in the reaction was 0.1%. Elastase substrate MeOSuc-AAPV-AMC (Bachem, Catalog #I-1270, Torrance, CA) of 100 μM final concentration was then added into the reaction system just before enzyme kinetics were read on PheraSTAR plate reader at excitation of 380 nm and emission of 460 nm with a 3-minutes interval for 30 minutes in total. Slope of fluorescence intensity vs. time representing the Vmax of enzyme activity was calculated with MARS software. % relative inhibition was calculated as: […]
(§2) IC50 was calculated based on the % relative inhibition curve using log(agonist) vs. response (three parameters) method with Prism software. All experiments were performed in triplicate for at least three independent times.
(§3) Human sputum was purchased from Discovery Life Sciences (Los Osos, CA). Human sputum was diluted 1:10 in volume with assay buffer (100 mM HEPES, 500 mM NaCl, 0.02% Tween 20) followed by vigorous vortexing. The 1:10 diluted human sputum was further diluted into 1:30, 1:90, 1:270, 1:810, and 1:2430. The elastase concentration was determined by elastase inhibition assay as described above. Specifically, a series of standards of human neutrophil elastase (starting at 2 μg/mL and further diluted 1:2 in volume) were prepared in the assay buffer. The samples and standards were plated in a 384-well black solid bottom plate; the substrate MeOSuc-AAPV-AMC of 100 μM final concentration was then added into the reaction system just before enzyme kinetics were read on PheraSTAR plate reader as mentioned above. The slope of enzymatic kinetic reading was calculated by MARS software. The elastase levels of the human sputum were calculated based on the standard curve.

[2] = biological target: elastase in COPD patient sputum (Homo sapiens (Human), UniProt P08246); assay: Elastase inhibition assay in COPD patient sputum; type: biochemical
elastase in COPD patient sputum, sequence (P08246 30-267): as above
Description: as §1, §2, §3

Plasma Stability Assay = type: in vitro ADME, mouse
Description: Propantheline was used as the reference compound in this assay; all stock solutions were stored at −40° C. before use. • 2) Test system: CD-1 Mouse Plasma from a minimum of 20 male individuals were obtained from BioreclamationlVT (Catalog #: […]2-M; Batch #: MSE244515). EDTA-K2 was used as the anticoagulant. Procedure:
The frozen plasma was thawed in a water bath at 37° C. prior to the experiments. The plasma was centrifuged at 4000 rpm for 5 min and the clots were removed if necessary.
The pH was adjusted to 7.4±0.1 as necessary. An intermediate solution (1 mM) was prepared and a 100 μM dosing solution was prepared by diluting 10 μL of the intermediate solution with 90 μL 45% MeOH/H2O. Duplicate of test samples were made by mixing 98 μL of blank plasma with 2 μL of dosing solution (100 μM) to achieve the final concentration of 2 μM. Samples were incubated at 37° C. At each time point (0, 10, 30, 60, and 120 min), 400 μL of stop solution (consisting of 200 ng/mL tolbutamide and 20 ng/mL buspirone in 50% MeOH/CH3CN) was added to precipitate protein under thorough mixing. The sample plates were then centrifuged at 4,000 rpm for 10 min. An aliquot of supernatant (100 μL) was transferred from each well and mixed with 200 of μL ultrapure water. The samples were shaken at 800 rpm for about 10 min before LC-MS/MS analysis.
Data analysis: The % remaining of test compound after incubation in plasma was calculated using following equation: Remaining=100×(PAR at Tn/PAR at T0) where PAR is the peak area ratio of analyte versus internal standard (IS) and The appointed incubation time points are T0 (0 min), Tn (n=0, 10, 30, 60, 120 min).
LC-MS/MS condition: Each compound was analyzed by LC/MS using an ACE 5-phenyl 50×2.1 mm column (Part No. ACE-125-0502) with 0.1% formic acid in water and 0.1% formic acid in acetonitrile as the mobile phases. Tobultamide was used as the internal standard. Data collected were processed by Analyst 1.6.2 software and MultiQuant 3.0.2 software.

in vitro = assay: in vitro
Description: 100 mM potassium phosphate buffer, pH 7.4. • 2. 10 mM MgCl2 • 3) Compound Dilution:
Intermediate solution was prepared by diluting 5 μL of compound or control stock solution (10 mM in DMSO) with DMSO (45 μL) and 1:1 Methanol/Water (450 μL) (concentration=100 μM, 45% MeOH). Working solution was prepared by diluting 50 μL of the intermediate solution with 450 μL of 100 mM potassium phosphate buffer, pH=7.4 (centration=10 μM, 4.5% MeOH). • 4) NADPH regenerating system (final Isocitric dehydrogenase concentration=1 unit/mL at incubation) comprised:
10 μL/well of compound working solution or control working solution was added to all plates (T0, T5, T10, T20, T30, T60, NCF60) except the matrix blank. 80 μL/well of microsome solution was added to every plate. The mixtures of microsome solution and compound were incubated at 37° C. for about 10 min. 10 μL/well of NADPH regenerating system (pre-warmed to 37° C.) was then added to every plate to start the reaction. […] For NCF60 (abbreviation of no co-factor) no NADPH regenerating system was added, but was replaced by 10 μL/well of potassium phosphate buffer (100 mM, pH 7.4); the resulting mixture was incubated at 37° C. for 1 h.
The reactions were then terminated with the stop solution (cold at 4° C.) containing 100 ng/mL Tolbutamide and 100 ng/mL Labetalol ([…]). The sampling plates were shaken for approximately 10 minutes, then were centrifuged at 4000 rpm for 20 min at 4° C. While centrifuging, 8 new 96 well plates were loaded with […] of HPLC grade water. 100 μL of supernatant was finally added to 300 μL of HPLC grade water and mixed for LC/MS/MS analysis.
The equation of first order kinetics was used to calculate T1/2 and CIint(mic): […]

Kinetic Solubility Test = type: physicochemical
Description: The stock solution of each compound (10 μL; 10 mM in DMSO) was diluted with phosphate buffer solution (490 μL; 50 mM, pH 6.8). The resulting mixture was shaken for 24 h. Samples were then filtered.

Caco-2 cells = assay: in vitro; details: Caco-2
Description: Digoxin, fenoterol, and propranol were used as standards respectively. Transport Method:
The transport buffer used in the study was HBSS with 10 mM HEPES at pH 7.40±0.05. Compounds were tested at 2 μM bi-directionally in duplicates. Digoxin was tested at […] bi-directionally in a duplicate, while fenoterol and propranolol were tested at 2 μM in A(apical) to B (basolateral) direction in duplicates. The final DMSO concentration was adjusted to less than 1%. The plate was incubated for 2 hours in a CO2 incubator at 37±1° C., with 5% CO2 at saturated humidity without shaking. All samples, after mixing with acetonitrile containing internal standard, were centrifuged at 4000 rpm for 20 min. Subsequently,100 μL supernatant solution was diluted with 100 μL distilled water for LC/MS/MS analysis. Concentrations of test and control compounds in starting solution, donor solution, and receiver solution were quantified by LC/MS/MS methodologies, using peak area ratio of analyte/internal standard. After transport assay, lucifer yellow rejection assay was applied to determine the Caco-2 cell monolayer integrity.
Data analysis: The apparent permeability coefficient Papp (cm/s) was calculated using the equation:
The efflux ratio was calculated using the equation: Efflux ratio=Papp(BA)/Papp(AB)
Percent recovery was calculated using the equation: % Recovery=100×[(Vr·Cr)+(Vd·Cd)]/(Vd·C0) Where Vd is the volume in the donor chambers (0.075 mL on the apical side, 0.25 mL on the basolateral side); Cd and Cr are the final concentrations of transport compound in donor and receiver chambers, respectively.

[3] = biological target: T1, human neutrophil elastase (Homo sapiens (Human), UniProt P08246); assay: Elastase inhibition assay, purified human neutrophil elastase; type: biochemical; details: for IC50: read-out: IC50
T1 sequence (P08246 30-247): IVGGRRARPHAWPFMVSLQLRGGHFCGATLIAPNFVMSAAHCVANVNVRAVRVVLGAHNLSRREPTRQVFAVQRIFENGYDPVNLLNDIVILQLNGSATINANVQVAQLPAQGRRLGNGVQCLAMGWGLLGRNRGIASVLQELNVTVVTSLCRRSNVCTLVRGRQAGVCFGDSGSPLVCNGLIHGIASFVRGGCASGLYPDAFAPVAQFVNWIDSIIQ
Description: as §1, with “Elastase substrate MeOSuc-AAPV-AMC (Bachem, Catalog #I-1270, Torrance, CA) of 100 μM final concentration was then added into the reaction system just before enzyme kinetics were read on PheraSTAR plate reader at excitation of 380 nm and emission of 460 nm with a 3-minutes interval for 30 minutes in total.” left out
as §2

[4] = biological target: T1, human neutrophil elastase; assay: Time dependence of elastase inhibition; type: biochemical
Description: The procedure for the elastase inhibition assay was followed with slight modifications. 0.1 μg/mL human neutrophil elastase was incubated with a range of concentrations of inhibitors for 5, 15, 30 and 60 minutes before substrate MeOSuc-AAPV-AMC of 100 μM final concentration was added. Enzyme kinetics were read on PheraSTAR plate reader and IC50 was calculated with the method described above.

[5] = biological target: T1, human neutrophil elastase; assay: Elastase inhibition assay, purified human neutrophil elastase; type: biochemical
[6] = mouse, microsomes, 1 h, 1 μM, pH 7.4

COC(=O)N[C@H](C(=O)N1CCC[C@H]1C(=O)N[C@H](B(O)O)C(C)C)C(C)C [Compound 50, ((R)-1-((S)-1-((methoxycarbonyl)-L-valyl)pyrrolidine-2-carboxamido)-2-methylpropyl)boronic acid]
IC50 ([1]; CF sputum): 0.51 ± 0.04 nM
IC50 [2]: 0.274 ± 0.004 nM
% Remaining (mean) (Plasma Stability Assay; CD-1 Mouse Plasma, 0 min, 2 μM, 37° C.): 100.0%
% Remaining (mean) (Plasma Stability Assay; CD-1 Mouse Plasma, 10 min): 100.5%
% Remaining (mean) (Plasma Stability Assay; CD-1 Mouse Plasma, 30 min): 105.2%
% Remaining (mean) (Plasma Stability Assay; CD-1 Mouse Plasma, 60 min): 88.0%
% Remaining (mean) (Plasma Stability Assay; CD-1 Mouse Plasma, 120 min): 76.7%
Extraction ratio (in vitro; mouse, 1 μM, pH 7.4): <0.3
Remaining (*NCF = 60min) (in vitro; [6]): 99.0%
Remaining (T = 60 min) (in vitro; [6]): 78.5%
CLint scaled at 1 μM (in vitro; mouse, microsomes, pH 7.4): < 2.28 L/h/kg
half-life at 1 μM (in vitro; mouse, microsomes, pH 7.4): > 2.42 h
microsomal CLint at 1 μM (in vitro; mouse, microsomes, pH 7.4): < 9.6 µL/min/mg
solubility kinetic at 24 h (Kinetic Solubility Test; aqueous buffer, kinetic from dmso stock, phosphate buffer pH 6.8, 24 h): > 74.2 µg/mL and > 200 µM

CC(C)[C@H](NC(=O)c1ccc(C(=O)NS(=O)(=O)c2ccc(Cl)cc2)cc1)C(=O)N1CCC[C@H]1C(=O)N[C@H](C(=O)C(F)(F)F)C(C)C [Compound 51a]
% Remaining (mean) (Plasma Stability Assay; mouse, plasma, 10 min): 99.0%
% Remaining (mean) (Plasma Stability Assay; mouse, plasma, 0.5 h): 109.1%
% Remaining (mean) (Plasma Stability Assay; mouse, plasma, 1 h): 99.5%
% Remaining (mean) (Plasma Stability Assay; mouse, plasma, 2 h): 106.6%
CD-1 Mouse Plasma % Remaining @ 2 hr (Plasma Stability Assay; mouse, plasma, 2 h): 106.6%
CLint(liver) (in vitro; MLM 0.5): 4.6 L/h/kg
Remaining (*NCF = 60min) (in vitro; MLM 0.5, no co-factor): 91.7%
Remaining (T = 60 min) (in vitro; MLM 0.5, with NADPH regenerating system): 52.2%
Kinetic Solubility pH = 6.8 (Kinetic Solubility Test; phosphate buffer pH 6.8, 24 h): 119.75 μg/mL
solubility kinetic at 24 h (Kinetic Solubility Test; phosphate buffer pH 6.8, 24 h): 174.28 µM (≈ 120 µg/mL)
Kinetic solubility (pH 6.8) (Kinetic Solubility Test; summary table): 174.28 μm
Caco-2 (Papp A − B) (Caco-2 cells): <0.16 10^−6 cm/s
Caco-2 (Papp B − A) (Caco-2 cells): 0.61 10^−6 cm/s
Mean Papp A to B (Caco-2 cells): <0.08 10^−6 cm/s
Mean Papp B to A (Caco-2 cells): <0.12 10^−6 cm/s
Mean Recovery % A to B (Caco-2 cells): <74.15%
Mean Recovery % B to A (Caco-2 cells): <90.87%

Cc1c(-c2ccnn2-c2ccc(C#N)cc2)cc(C(=O)NCC(O)CNC(=O)c2cc(-c3ccnn3-c3ccc(C#N)cc3)c(C)n(-c3cccc(C(F)(F)F)c3)c2=O)c(=O)n1-c1cccc(C(F)(F)F)c1 [Compound 58]
LipE ([3]; Purified NHE): 5.04
IC50 ([3]; Purified NHE, 30 minutes incubation at room temperature, 100 μM substrate): 0.0111 ± 0.0002 nM
IC50 ([3]; purified HNE): 0.011 nM
IC50 ([1]; CF sputum): 203 ± 31.2 nM
LipE ([1]; CF sputum): 0.77
inhibitory activity in patient sputum versus purified HNE (in words) ([1]; sputum samples of CF and COPD patients): potencies diminished drastically
IC50 [2]: 16.2 ± 2.13 nM
LipE [2]: 1.87
IC50 ([4]; 5 min incubation with inhibitor): 0.011 nM
IC50 ([4]; 15 min incubation with inhibitor): 0.004 nM
IC50 ([4]; 30 min incubation with inhibitor): 0.0026 nM
increase in potency with increasing incubation times ([4]; between 5-60 minutes): 55 fold
Ki ([5]; 2.5, 25, 50 and 100 μM substrate, mixed model): 0.0027 nM
Ki ([5]; purified HNE): 0.0027 nM
